# Results: patent publication US9113649B2, “Food additive comprising an amidase for detoxifying ochratoxin” (DuPont Nutrition Biosciences ApS, priority 2010, dated 2015)
# Target: Aspergillus niger amidase 2 sig (full length 480 aa, intracellular fraction, SEQ ID NO: 1) (Aspergillus niger, UniProt A2R2V4)
# Conditions: pH 7
# Protocol: The reaction contained 60 μl mops-NaOH (0.2M, pH7.0), 20 mM CaCl2, 20 mM EDTA, amidase 2 sig (0.46 μg protein) extracted from A. niger cell harboring the amidase gene, 2 μl 25 μg/ml OTA and water to a final volume of 120 μl. The reaction was performed at 37° C. for 30 min and stopped by adding 150 μl acetonitrile containing 0.2% acetic acid. OTA and its product OT-alpha (=ODα) were analyzed on RP-HPLC on C18 column with an injection of 5 μl. Positive control (PC) contained no additives other than the buffer the amidase and OTA. Blank contained only buffer and OTA.
# Chain of Aspergillus niger amidase 2 sig (full length 480 aa, intracellular fraction, SEQ ID NO: 1) (A2R2V4 other isoform, or with tags, fused parts or gaps): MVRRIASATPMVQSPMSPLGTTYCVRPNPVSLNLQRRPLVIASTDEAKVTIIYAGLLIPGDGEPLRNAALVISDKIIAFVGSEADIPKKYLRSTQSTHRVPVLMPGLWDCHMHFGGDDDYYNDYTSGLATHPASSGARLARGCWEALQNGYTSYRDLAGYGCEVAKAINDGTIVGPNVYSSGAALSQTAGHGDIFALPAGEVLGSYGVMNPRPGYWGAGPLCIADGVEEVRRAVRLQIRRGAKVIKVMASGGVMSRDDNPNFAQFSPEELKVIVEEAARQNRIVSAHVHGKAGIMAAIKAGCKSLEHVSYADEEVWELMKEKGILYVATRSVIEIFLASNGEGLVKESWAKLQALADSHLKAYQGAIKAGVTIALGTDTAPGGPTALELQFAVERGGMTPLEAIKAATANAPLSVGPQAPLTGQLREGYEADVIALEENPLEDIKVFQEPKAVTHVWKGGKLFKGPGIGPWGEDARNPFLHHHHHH
compound,measurement,value
O=C(O)CN(CCN(CC(=O)O)CC(=O)O)CC(=O)O [EDTA],inhibition of amidase 2 sig (OTA degradation),no inhibition
